This note sets out measurements from patent US10273313B2, “Multimeric mannosides, a process for preparing the same and their uses as a drug” (CENTRE NATIONAL DE LA RECHERCHE SCIENTIFIQUE, priority 2012, dated 2019).

For one assay, the target named is FimH (Escherichia coli, UniProt P08191). It counts as binding. As to conditions: competitive ELISA; for Concentration blocking FimH binding towards oligomannose glycans: RNAseB substrate. As to the method: Journal of the American Society for Mass Spectrometry, 2009. […] Tested compounds were added to wells following with FimH treatment.
FimH, sequence (P08191 22-300): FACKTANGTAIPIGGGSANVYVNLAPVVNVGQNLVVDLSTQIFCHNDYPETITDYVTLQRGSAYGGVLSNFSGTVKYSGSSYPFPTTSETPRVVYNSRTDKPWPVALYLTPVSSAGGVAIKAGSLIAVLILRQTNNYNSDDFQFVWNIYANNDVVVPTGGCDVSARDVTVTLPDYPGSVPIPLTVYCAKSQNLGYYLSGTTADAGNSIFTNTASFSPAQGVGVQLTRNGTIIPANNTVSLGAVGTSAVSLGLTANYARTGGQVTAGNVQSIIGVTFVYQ
Plates were coated with 100 μl of 10 mg/ml solution of RNAse-B in 100 mM carbonate/bicarbonate buffer pH 9.6. […] 2 h. Then washed three times with 10 mM PBS containing 0.05% Tween-20. […] Wells were washed three times with 10 mM PBS+0.05% Tween-20. 100 μl of anti-body conjugated to horseradish peroxidase (1:5000) was added in buffer and incubated for 1 h at room temperature. Then washed three times with 10 mM PBS+0.05% Tween-20. Added 100 μl of TMB and incubated in dark for 2-5 min. The reaction was stopped with 100 μl/well 1N sulfuric acid. Plate absorbance was analyzed at 450 nm using microplate reader.

Assay [1] deals with CD-associated E. coli strain AIEC LF82. The assay is described as follows: Hemagglutination inhibition (HAI) with AIEC LF82, guinea pig erythrocytes. The format is cell-based, Escherichia coli. As to the method:
AIEC adhesion to the gut occurs through the binding of FimH adhesins to the mannosylated glycans of intestinal cells. This scenario was first mimicked here with the highly mannosylated glycocalyx of guinea pig erythrocytes.
A two-fold dilution series of the antagonists was added to wells containing guinea pig erythrocytes and AIEC LF82 bacteria. The formation of the cross-linked network (hemagglutination) due to the interaction of the E. coli FimH adhesins with the glycocalyx of the erythrocytes was prevented at a certain concentration of inhibitors. The lowest concentration at which hemagglutination is still inhibited is defined as the inhibition titer of the antagonist. HM was included in the assay to obtain a relative inhibitory concentration (rIC) for the antagonists by dividing the inhibitory concentration (IC) of the substance of interest by the value for HM. In fact, rICs are more accurate than rough inhibition titers to compare the potency of antagonists evaluated in different assays.

Assay [2] concerns AIEC strain LF82 adhesion to T84 intestinal epithelial cells. As to the kind of experiment: Adhesion assay on T84 cells with thiazolylaminomannosides (Example 22.3). The format is cell-based, Escherichia coli. The following applies: for Inhibitory effect on adhesion: 100 nM; for inhibition at 10 µM: Escherichia coli, Epithelial cell, read-out: Inhibition of adhesion. The protocol: T84 Intestinal Epithelial cells (overexpressing the receptor CEACAM6) were beforehand incubated for 1 h with the synthetic thiazolylaminomannosides 6-20 (examples 3-17) at different concentrations. Each compound was tested four times at concentrations of 0.1, 1, 10 and 100 μM.
The cells were then infected in the presence of inhibitory compounds by the AIEC strain of reference LF82 for 3 hours at a multiplicity of infection of 10 bacteria to a cell. After 3 h of incubation, the monolayer was washed and the number of AIEC bacteria associated with cells was counted. The level of adhesion of AIEC LF82 strain in the presence of inhibitors (residual adhesion) was expressed relatively to the level of adherence in the absence of any treatment (considered 100%) (FIG. 10).

Assay [3] has as its system AIEC LF82 bacteria adhesion to T84 intestinal epithelial cells. As to the kind of experiment: Adhesion assay on T84 cells, pre-, co- and post-incubation protocols (Example 21.2). The format is cell-based, Escherichia coli. The following applies: pre-incubation assay. The protocol: E. coli strain LF82 was isolated from a chronic ileal lesion of a patient with Crohn's disease (CD). Bacteria were grown routinely in Luria-Bertani (LB) broth overnight at 37° C. Intestinal epithelial cells T84 derived from colonic adenocarcinoma were maintained in an atmosphere containing 5% CO2 at 37° C. in DMEM/F12 (50/50) medium supplemented with 10% (v/v) heat-inactivated fetal calf serum (FCS), 1% L-glutamine, 100 000 U·l^−1 penicillin, 100 mg·l^−1 streptomycin, 25 μg·l^−1 amphotericin B.
T84 were seeded in 48-well plates at a concentration of 1.5×10^5 cells per well and grown for 48 h. AIEC LF82 bacteria were incubated 1 h with each mannoside prior the cell infection (pre-incubation protocol) or they were added simultaneously onto the cells (co-incubation protocol) in complete medium without antibiotics, containing heat inactivated fetal calf serum (FCS). Heptyl-mannose or compound 2 (example 1) were tested at a dose of 100; 10; 1 or 0.1 μM. D-D-mannose was tested at a dose of 10 000; 1 000; 100 or 10 μM and compound 1 (example 2bis) was tested at a concentration of 500; 100; 10 or 1 μM. Cells were infected with AIEC LF82 bacteria at a multiplicity of infection (MOI) of 10 bacteria per cell for 3 h at 37° C. For the post-incubation protocol, mannosides were incubated with cells for 3 h after bacterial infection. A washing step was realized before this post-incubation to eliminate non-adherent bacteria. Monolayers were washed in phosphate-buffered saline (PBS; pH 7.2) and cells were then lysed with 1% Triton X-100 in deionized water. Samples were diluted and plated onto Luria Bertani agar plates to determine the number of colony-forming units (CFU) recovered from the lysed monolayers. Results were expressed as percentages of residual adhesion, considering adhesion level of AIEC LF82 without mannoside treatment as 100%.

For assay [4], the system named is AIEC LF82 bacteria on colonic tissue from transgenic mice expressing human CEACAM6. The assay is described as follows: Ex-vivo adhesion assay on colonic tissue of CEABAC10 mice. Also noted: species or system CEABAC10 transgenic mice. As to conditions: 1 h. As to the method:
E. coli strain LF82 was isolated from a chronic ileal lesion of a patient with Crohn's disease (CD). Bacteria were grown routinely in Luria-Bertani (LB) broth overnight at 37° C.
Adhesion assay of AIEC LF82 bacteria were performed using colonic tissue from transgenic mice expressing the human CEACAM6 protein (C. H. Chan, C. P. Stanners “Novel mouse model for carcinoembryonic antigen-based therapy”, Mol Ther. 2004; 9, 775-785). Briefly, 10 to 12-week-old FVB/N CEABAC10 transgenic mice were anesthetized, euthanized by cervical dislocation and colons were removed. Colons were washed twice in phosphate buffer saline (PBS) and were segmented in 4 independent loops of ≈0.6 cm. A volume of 100 μL of LF82 bacteria at 2×10^6 bacteria/mL in PBS or of a mix of LF82 bacteria+D-mannose (1 μmol and 10 μmol) or compound 13 (0.1 μmol and 0.01 μmol) were injected into the loops. Loops were incubated 1 h at 37° C. in an atmosphere containing 5% of CO2, and then opened and washed 4 times in PBS. Tissues were homogenized, appropriately diluted and plated onto Luria-Bertani agar plates containing ampicillin (100 μg/mL) and erythromycin (20 μg/mL) to select AIEC LF82 bacteria.
Entire colons from CEABAC10 mice were collected and washed two times with PBS. The colon was divided in 4 isolated loops and 100 μL of a bacterial suspension containing […] bacteria/mL with or without inhibitory compounds were injected into the loops. D-mannose was tested at a dose of 1 and 10 μmol and monovalent 13 was tested at a dose of 0.01 and 0.1 μmol. After a 1 h-period of incubation, samples were extensively washed and homogenized to numerate adherent bacteria. Bacterial adhesion was expressed as percentages of residual adhesion (100% corresponds to the adhesion in absence of any compound).

SMILES strings stand for the structures. “Also recorded” adds a separate entry of the source. Bounds are passed on as bounds.

As to `O=C(c1ccsc1)c1cnc(N[C@H]2OC(CO)[C@@H](O)[C@H](O)C2O)s1` (mixture of isomers) [Compound 12, 2-(α-D-mannopyranosyl)amino-5-(thiophene-3-carbonyl)thiazole], the “Concentration blocking FimH binding towards oligomannose glycans” value on FimH was determined as 50 nM. The same measure, in the same setting: the figure for `O=C(c1cccs1)c1cnc(N[C@H]2OC(CO)[C@@H](O)[C@H](O)C2O)s1` (mixture of isomers) [Compound 14, 2-(α-D-mannopyranosyl)amino-5-(thiophene-2-carbonyl)thiazole] is 50 nM.

In the case of `O=C(c1cnc(N[C@H]2O[C@H](CO)[C@@H](O)[C@H](O)[C@@H]2O)s1)C(F)(F)F` [Compound 7, 2-(α-D-mannopyranosyl)amino-5-trifluoroacetylthiazole], the “Concentration blocking FimH binding towards oligomannose glycans” value at FimH is 50 nM. Moreover, the “Inhibitory potency in HAI (in words)” value in assay [1] was “less potent than HM; also recorded: significantly less potent than 6”. Take `O=C(c1ccccc1)c1cnc(N[C@H]2O[C@H](CO)[C@@H](O)[C@H](O)[C@@H]2O)s1` [Compound 8, 2-(α-D-mannopyranosyl)amino-5-benzoylthiazole]: at FimH, the “Level of inhibition compared to the HM reference” value is on record as “significantly higher level of inhibition” and the “Concentration blocking FimH binding towards oligomannose glycans” value amounted to 5 nM. For the same compound, the “Inhibitory effect on adhesion” value in assay [2] is given as “significant inhibitory effect”.

In the case of `CC(C)(C)C(=O)c1cnc(N[C@H]2OC(CO)[C@@H](O)C(O)C2O)s1` (stereo partly drawn) [Compound 9, 2-(α-D-mannopyranosyl)amin-5-tert-butylcarbonylthiazole], the “Concentration blocking FimH binding towards oligomannose glycans” value on FimH is listed as 50 nM.

On to `O=C(c1ccc([N+](=O)[O-])cc1)c1cnc(N[C@H]2O[C@H](CO)[C@@H](O)[C@H](O)[C@@H]2O)s1` [Compound 10, 2-(α-D-mannopyranosyl)amino-5-(4-nitrobenzoyl)thiazole], for which the “Inhibitory potency in HAI (in words)” value in assay [1] is listed as “less potent than the unsubstituted phenyl analogue 8”. For the same compound, in assay [2], the “Inhibitory effect on adhesion” value is “significant inhibitory effect” and the inhibition at 10 µM was > 90%.

With `Cc1ccc(C(=O)c2cnc(N[C@H]3O[C@H](CO)[C@@H](O)[C@H](O)[C@@H]3O)s2)cc1` [Compound 11, 2-(α-D-mannopyranosyl)amino-5-(4-methylbenzoyl)thiazole], the “Concentration blocking FimH binding towards oligomannose glycans” value at FimH came out at 50 nM. For `O=C(c1cnc(N[C@H]2OC(CO)[C@@H](O)C(O)C2O)s1)C12CC3CC(CC(C3)C1)C2` (stereo partly drawn) [Compound 16, 5-((3r,5r,7r)-adamantane-1-carbonyl)-2-(α-D-mannopyranosyl)aminothiazole], the “Inhibitory potency in HAI (in words)” value in assay [1] is “significant improvement”. In addition, in assay [2], the “Inhibitory effect on adhesion” value is on record as “significant inhibitory effect”. On to `O=C(c1ccncc1)c1cnc(N[C@H]2O[C@H](CO)[C@@H](O)[C@H](O)[C@@H]2O)s1` [Compound 17, 2-(α-D-mannopyranosyl)amino-5-isonicotinoylthiazole], for which the inhibition at 10 µM in assay [2] is > 90%. In the case of `O=C(c1ccc(Br)cc1)c1cnc(N[C@H]2O[C@H](CO)[C@@H](O)[C@H](O)[C@@H]2O)s1` [Compound 19, 2-(α-D-mannopyranosyl)amino-5-(4-bromobenzoyl)thiazole], in assay [2], the inhibition at 10 µM is > 90%. With `N#Cc1ccc(C(=O)c2cnc(N[C@H]3O[C@H](CO)[C@@H](O)[C@H](O)[C@@H]3O)s2)cc1` [Compound 20, 2-(α-D-mannopyranosyl)amino-5-(4-cyanobenzoyl)thiazole], the “Inhibitory potency in HAI (in words)” value in assay [1] is given as “less potent than the unsubstituted phenyl analogue 8”. With `OC[C@H]1O[C@H](O)[C@@H](O)[C@@H](O)[C@@H]1O` [D-mannose, α-D-mannose, reference compound], the “Concentration leading to decreased adhesion levels of at least 50%” value in assay [3] is 1000 µM. The same compound gave a Residual adhesion in assay [2] (1000 μM) of 51.6%. The Bacterial adhesion result in assay [4] (1 μmol) is “no decrease”. Further, the “Bacterial adhesion (residual)” value in assay [4] (dose of 10 μmol) is 41%.
